Measurements from patent US20240317691A1, “Compounds for Modulating Epithelial 15-(S)-Lipoxygenase-2 and Methods of Use for Same” (The Regents of the University of California, priority 2021, published 2024).
Several values for one entry are separate records, joined by “and”; a condition that tells them apart may be missing. Equal entries are not always repeated. Where two headings read alike, the source gives them in different places.

Tests used:
h15-LOX-2 [1] = molecular target: T1, h15-LOX-2 (Homo sapiens (Human), UniProt O15296); assay: Lipoxygenase UV-Vis-based IC50 assay, h15-LOX-2; settings: for inhibition at 20 µM: read-out: % Inhibition at 20 μM; for potency against h15-LOX-2, SAR statement: compared with original hits
T1 sequence (O15296 whole entry, the tested form may be a part): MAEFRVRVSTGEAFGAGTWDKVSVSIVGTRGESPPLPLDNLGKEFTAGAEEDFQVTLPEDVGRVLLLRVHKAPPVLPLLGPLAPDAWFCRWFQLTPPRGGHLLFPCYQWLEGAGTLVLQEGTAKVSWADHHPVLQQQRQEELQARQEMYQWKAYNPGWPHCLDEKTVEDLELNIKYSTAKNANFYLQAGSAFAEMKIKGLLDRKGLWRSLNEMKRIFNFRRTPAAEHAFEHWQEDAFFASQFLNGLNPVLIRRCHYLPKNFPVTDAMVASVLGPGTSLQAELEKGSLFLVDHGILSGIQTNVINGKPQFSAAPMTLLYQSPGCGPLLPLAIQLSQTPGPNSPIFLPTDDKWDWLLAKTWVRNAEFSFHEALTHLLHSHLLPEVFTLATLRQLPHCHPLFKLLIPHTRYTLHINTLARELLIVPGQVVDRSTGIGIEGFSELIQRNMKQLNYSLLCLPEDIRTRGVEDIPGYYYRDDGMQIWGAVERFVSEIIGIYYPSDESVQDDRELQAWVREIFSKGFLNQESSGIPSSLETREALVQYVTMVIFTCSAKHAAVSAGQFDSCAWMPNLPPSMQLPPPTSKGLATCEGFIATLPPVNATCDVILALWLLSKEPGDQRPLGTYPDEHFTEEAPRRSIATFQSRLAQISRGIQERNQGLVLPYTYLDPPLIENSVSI
Protocol: (§3) The full IC50 experiments were done with at least five different inhibitor concentrations. All reaction mixtures were 2 mL in volume and constantly stirred using a magnetic stir bar at room temperature (23° C.) with the appropriate amount of LOX isozyme [h5-LOX (˜200 nM); h12-LOX (˜50 nM); h15-LOX-1 (˜60 nM); h15-LOX-2 (˜200 nM)]. […] Reactions with h12-LOX were carried out in 25 mM HEPES (pH 8.0) 0.01% Triton X-100 and 10 μM AA. Reactions with the crude, ammonium sulfate precipitated h5-LOX were carried out in 25 mM HEPES (pH 7.3), 0.3 mM CaCl2), 0.1 mM EDTA, 0.2 mM ATP, 0.01% Triton X100 and 10 μM AA. Reactions with h15-LOX-1 and h15-LOX-2 were carried out in 25 mM HEPES buffer (pH 7.5), 0.01% Triton X-100 and 10 μM AA. […] IC50 values were obtained by determining the percent inhibition at various inhibitor concentrations and plotting against inhibitor concentration, followed by a hyperbolic saturation curve fit. The percent inhibition was calculated by comparing the enzymatic rate of the control (DMSO) to the enzymatic rate with the respective inhibitor present. The experiments used for generating the saturation curves were performed in duplicate or triplicate, depending on the quality of the data.

h15-LOX-2 [2] = molecular target: T1, h15-LOX-2; assay: Inhibitors as substrates of h15-LOX-2 (UV-Vis and RP-HPLC); type: biochemical; settings: 20 μM inhibitor, absence of AA
Protocol: All buffer conditions and the determination of each rate are identical to the UV-Vis assay as described above. 20 μM of each inhibitor was reacted with h15-LOX-2 in 2 mL reaction mixtures in the absence of AA. Controls included DMSO (vehicle), 10 μM AA, and enzyme. All reactions were conducted on a Perkin Elmer Lambda 40 UV/Vis spectrophotometer. […] Each reaction mixture was subsequently extracted and analyzed via RP-HPLC using a Higgins HAIsiL analytical column. […] Retention times and absorbance spectra of each of the reactions were compared to spectra of the controls.

h15-LOX-2 [3] = molecular target: T1, h15-LOX-2; assay: Hydrogen/deuterium exchange mass spectrometry of h15-LOX-2; settings: 20 μM inhibitor
Protocol: Samples were incubated randomly at 10 time points (0, 10, 20, 45, 60, 180, 600, 1800, 3600, and 7200 s) at 25° C. using a water bath. For each given temperature and mutant, the time points (samples) were collected over the course of three to four days and randomized to reduce systematic error. Each sample (from a unique time point) was prepared and processed once. For the samples containing inhibitors, the inhibitor was added (20 μM final concentration) to the protein stock solution (at least one minute) prior to D2O addition. The specific inhibitor was also added to the D2O buffer at a final concentration of 20 μM prior to the exchange experiment.
Procedures from this point were conducted near 4° C. Prior to pepsin digestion, guanidine HCl (in citric acid, pH 2.4) was mixed with the samples to a final concentration of ca. 0.5 M. This solution contained DTT to the final concentration of 5 mM. […]
Deuterated, pepsin-digested samples of 15-LOX-2 were analyzed using an Agilent 1200 LC (Santa Clara, CA) that was connected in-line with the LTQ Orbitrap XL mass spectrometer (Thermo). Mass spectral data acquired for HDX measurements were analyzed using the software, HDX WorkBench. The percent deuterium incorporation was calculated for each of these peptides, taking into account the number of amide linkages (excluding proline residues) and the calculated number of deuterons incorporated. […]

h15-LOX-1 = h15-LOX-1 (Homo sapiens (Human), UniProt P16050); assay: Lipoxygenase UV-Vis-based assay, h15-LOX-1 selectivity
Sequence of h15-LOX-1 (P16050 whole entry): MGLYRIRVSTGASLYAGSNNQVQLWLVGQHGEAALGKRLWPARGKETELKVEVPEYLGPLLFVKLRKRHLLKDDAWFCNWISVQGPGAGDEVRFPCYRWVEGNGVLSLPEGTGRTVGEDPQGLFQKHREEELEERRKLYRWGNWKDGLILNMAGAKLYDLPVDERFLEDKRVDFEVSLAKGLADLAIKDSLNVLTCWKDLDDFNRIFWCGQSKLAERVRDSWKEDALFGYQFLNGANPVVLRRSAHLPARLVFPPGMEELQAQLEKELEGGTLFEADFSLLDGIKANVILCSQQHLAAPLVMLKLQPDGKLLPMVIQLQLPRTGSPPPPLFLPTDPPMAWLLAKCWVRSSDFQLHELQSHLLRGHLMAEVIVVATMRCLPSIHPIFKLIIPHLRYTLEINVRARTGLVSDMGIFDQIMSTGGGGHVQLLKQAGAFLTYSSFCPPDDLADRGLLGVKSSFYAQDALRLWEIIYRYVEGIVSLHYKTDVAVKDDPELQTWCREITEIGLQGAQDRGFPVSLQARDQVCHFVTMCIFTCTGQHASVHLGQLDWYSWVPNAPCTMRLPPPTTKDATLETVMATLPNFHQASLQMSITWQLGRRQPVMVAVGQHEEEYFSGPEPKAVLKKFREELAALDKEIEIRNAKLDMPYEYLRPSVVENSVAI
Protocol: as §3

[4] = molecular target: h15-LOX-2 expressed in HEK293T cells (Homo sapiens (Human), UniProt O15296); assay: Inhibition of h15-LOX-2 in HEK293T cells (15-HETE production); type: cell-based; settings: h15-LOX-2/HEK293T cells, exogenous AA, triplicate
Sequence of h15-LOX-2 expressed in HEK293T cells (O15296 whole entry): as the sequence (O15296 whole entry, the tested form may be a part) above
Protocol: HEK293T cells over-expressing h15-LOX-2 were grown in MEM (Gibco) with 10% FBS (Gibco), 2 mM glutamine (Sigma), 100U/mL of penicillin/streptomycin (Gibco) and 640 μg/ml G418 sulfate (Fisher) as a selection agent. Cells were harvested at 90% confluence with trypsin-EDTA (Gibco) and washed once with MEM with 10% FBS. Cells were then washed with 0.1% glucose (Fisher) in PBS (Gibco). Cells were then diluted in 0.1% glucose in PBS to a concentration of 1 million cells/mL. Cells were treated with DMSO (0.2%) or inhibitor in DMSO and incubated at 37° C. for 20 min. Cells were then stimulated with 100 uM CaCl2) (Sigma), 5 μM Ca Ionophore A23187 (Sigma), and 1 μM arachidonic acid (NuCheck) for 10 min at 37° C. Cells were then acidified to 40 uM HCl and snap-frozen in liquid nitrogen.

h15-LOX-2 [5] = molecular target: T1, h15-LOX-2; assay: Pseudo-peroxidase activity assay (redox); type: biochemical; settings: 20 μM inhibitor, degradation of 13-HpODE at 234 nm; more than 25% degradation indicates redox activity
Protocol: 13-HpODE was used as the oxidant and BWb70c as the positive control. […] The reaction mixtures were constantly stirred at 23° C. […] The negative controls used were: enzyme alone with the product, enzyme alone with inhibitor, as well as inhibitor alone with the product. These formed a baseline for the assay, reflecting non-pseudo-peroxidase dependent hydroperoxide product decomposition. To rule out the auto-inactivation of the enzyme from pseudo-peroxidase cycling, the h15-LOX-2 residual activity was determined by the addition of 20 μM AA at the end of each reaction.

ovine COX-1 = ovine COX-1 (Ovis aries (Sheep), UniProt P05979); assay: Cyclooxygenase selectivity assay, COX-1; type: biochemical; settings: estimated at 25 μM inhibitor concentration, 100 μM AA
Sequence of ovine COX-1 (P05979 25-600): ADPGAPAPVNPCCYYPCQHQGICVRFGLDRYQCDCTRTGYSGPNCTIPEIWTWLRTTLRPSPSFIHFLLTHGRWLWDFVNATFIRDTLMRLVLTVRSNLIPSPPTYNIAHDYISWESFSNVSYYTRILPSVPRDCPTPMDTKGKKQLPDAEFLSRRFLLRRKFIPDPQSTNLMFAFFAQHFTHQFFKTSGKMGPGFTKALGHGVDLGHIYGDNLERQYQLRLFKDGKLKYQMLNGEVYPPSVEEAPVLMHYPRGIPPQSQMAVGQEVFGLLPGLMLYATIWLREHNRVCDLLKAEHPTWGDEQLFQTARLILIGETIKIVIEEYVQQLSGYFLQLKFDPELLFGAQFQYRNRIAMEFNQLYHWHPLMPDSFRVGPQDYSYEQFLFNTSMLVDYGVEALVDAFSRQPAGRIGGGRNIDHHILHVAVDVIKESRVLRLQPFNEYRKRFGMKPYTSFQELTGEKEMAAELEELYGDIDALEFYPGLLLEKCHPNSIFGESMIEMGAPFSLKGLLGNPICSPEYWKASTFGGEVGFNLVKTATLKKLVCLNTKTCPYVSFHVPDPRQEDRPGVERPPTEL
Protocol: (§1) Cyclooxygenase selectivity assay was performed as previously described.^24 Approximately 3 μg of either ovine COX-1 (COX-1) or human recombinant COX-2 (COX-2) (Cayman Chemical) were added to buffer containing 0.1 M Tris-HCl buffer (pH 8.0), 5 mM EDTA, 2 mM phenol, and 1 μM hemin at 37° C. […] The reaction was then initiated by adding approximately 100 μM AA in the reaction cell, as indicated in the enzymatic protocol (Cayman Chemicals). A Hansatech DWI oxygen electrode was utilized for data collection and the consumption of oxygen was recorded.
(§2) Indomethacin and the vehicle of inhibitor (DMSO) were the positive and negative controls, respectively. The percent inhibition of the enzyme was calculated by comparing the rates of O2 consumption for experimental samples (with inhibitor) to the rates of control samples (with DMSO).

h5-LOX = h5-LOX (Homo sapiens (Human), UniProt P09917); assay: Lipoxygenase UV-Vis-based assay, h5-LOX selectivity
Sequence of h5-LOX (P09917 whole entry): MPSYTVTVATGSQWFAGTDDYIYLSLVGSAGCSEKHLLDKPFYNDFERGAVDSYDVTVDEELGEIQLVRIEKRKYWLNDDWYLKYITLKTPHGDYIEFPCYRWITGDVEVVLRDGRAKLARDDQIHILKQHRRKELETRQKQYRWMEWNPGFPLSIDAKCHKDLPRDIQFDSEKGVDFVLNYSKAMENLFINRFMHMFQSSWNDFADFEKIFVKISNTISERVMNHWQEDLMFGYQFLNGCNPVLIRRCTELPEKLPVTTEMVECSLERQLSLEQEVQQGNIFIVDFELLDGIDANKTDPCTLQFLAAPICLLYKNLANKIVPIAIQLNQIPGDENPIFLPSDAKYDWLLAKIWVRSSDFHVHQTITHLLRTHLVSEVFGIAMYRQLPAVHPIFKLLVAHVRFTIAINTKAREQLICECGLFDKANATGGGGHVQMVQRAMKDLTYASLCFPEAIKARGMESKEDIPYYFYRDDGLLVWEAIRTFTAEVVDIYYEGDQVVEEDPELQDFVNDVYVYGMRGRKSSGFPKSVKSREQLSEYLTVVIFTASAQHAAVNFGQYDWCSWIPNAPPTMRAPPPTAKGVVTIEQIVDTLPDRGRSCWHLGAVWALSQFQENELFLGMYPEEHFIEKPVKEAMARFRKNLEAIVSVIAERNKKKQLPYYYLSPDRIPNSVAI
Protocol: as §3

h15-LOX-2 [6] = molecular target: T1, h15-LOX-2; assay: Steady-state inhibition kinetics of h15-LOX-2; type: biochemical
Protocol: Reactions were initiated by adding h15-LOX-2 to a constantly stirring 2 mL reaction mixture containing 0.7 μM-20 μM AA in 25 mM HEPES buffer (pH 7.5), in the presence of 0.01% Triton X-100. Kinetic data were obtained by recording initial enzymatic rates, at varied inhibitor concentrations, and subsequently fitting the data to the Henri-Michaelis-Menten equation using KaleidaGraph (Synergy) to determine Vmax (μmol/min) and Km (μM). The primary data were then plotted in Dixon format using Microsoft Excel by graphing 1/v vs. [I] μM at the chosen substrate concentrations. From the Dixon plots, the slope at each substrate concentration was extracted and plotted against 1/[S] μM to produce the Dixon replots. The Kic equilibrium constant of dissociation was calculated by dividing Km/Vmax by the slope of the replot. To obtain Kiu, 1/Vmax was divided by the y-intercept of the replot. Kic and Kiu are defined as the equilibrium constant of dissociation from the catalytic and secondary sites, respectively.

human recombinant COX-2 = human recombinant COX-2 (Homo sapiens (Human), UniProt P35354); assay: Cyclooxygenase selectivity assay, COX-2; type: biochemical; settings: estimated at 25 μM inhibitor concentration, 100 μM AA
Sequence of human recombinant COX-2 (P35354 18-604): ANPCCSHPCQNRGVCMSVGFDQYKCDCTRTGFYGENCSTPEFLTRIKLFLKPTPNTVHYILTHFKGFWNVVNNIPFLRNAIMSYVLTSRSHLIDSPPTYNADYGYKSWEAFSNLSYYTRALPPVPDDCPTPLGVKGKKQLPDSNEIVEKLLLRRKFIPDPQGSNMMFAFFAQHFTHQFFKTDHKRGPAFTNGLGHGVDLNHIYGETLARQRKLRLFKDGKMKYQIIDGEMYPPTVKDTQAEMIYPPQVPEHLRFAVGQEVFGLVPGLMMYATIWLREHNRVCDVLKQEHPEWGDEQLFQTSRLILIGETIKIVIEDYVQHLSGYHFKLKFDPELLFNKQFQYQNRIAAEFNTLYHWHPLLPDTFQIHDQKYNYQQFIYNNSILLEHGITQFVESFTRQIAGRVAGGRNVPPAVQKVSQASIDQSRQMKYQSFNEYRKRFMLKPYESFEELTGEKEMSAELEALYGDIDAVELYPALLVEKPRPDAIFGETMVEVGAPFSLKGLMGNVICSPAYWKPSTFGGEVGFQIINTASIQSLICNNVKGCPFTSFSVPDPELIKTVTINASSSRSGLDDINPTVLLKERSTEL
Protocol: as §1, §2

h12-LOX = h12-LOX (Homo sapiens (Human), UniProt P18054); assay: Lipoxygenase UV-Vis-based assay, h12-LOX selectivity
Sequence of h12-LOX (P18054 whole entry): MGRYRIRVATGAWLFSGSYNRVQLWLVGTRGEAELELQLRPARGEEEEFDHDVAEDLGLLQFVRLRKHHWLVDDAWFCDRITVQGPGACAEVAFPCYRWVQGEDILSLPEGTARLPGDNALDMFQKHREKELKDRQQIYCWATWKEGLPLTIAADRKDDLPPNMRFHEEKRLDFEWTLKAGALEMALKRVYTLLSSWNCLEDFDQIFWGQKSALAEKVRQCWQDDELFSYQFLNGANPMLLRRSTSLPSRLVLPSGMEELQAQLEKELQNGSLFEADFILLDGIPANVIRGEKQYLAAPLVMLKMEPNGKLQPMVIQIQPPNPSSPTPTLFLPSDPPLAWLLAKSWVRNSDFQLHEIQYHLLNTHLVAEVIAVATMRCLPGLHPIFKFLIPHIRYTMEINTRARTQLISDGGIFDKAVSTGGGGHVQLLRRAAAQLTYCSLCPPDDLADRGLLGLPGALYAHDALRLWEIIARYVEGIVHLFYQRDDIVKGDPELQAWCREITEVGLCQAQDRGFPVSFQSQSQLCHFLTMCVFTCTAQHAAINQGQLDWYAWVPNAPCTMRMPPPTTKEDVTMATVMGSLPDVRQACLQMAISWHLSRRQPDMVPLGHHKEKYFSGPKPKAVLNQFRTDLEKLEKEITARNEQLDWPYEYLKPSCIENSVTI
Protocol: as §3

[7] = read-out: IC50 (μM) (± SD), h15-LOX-2 SAR study, 10 μM AA, 0.01% TritonX-100
[8] = read-out: IC50 (μM) (± SD (μM)), h15-LOX-2, 10 μM AA, duplicate
[9] = read-out: h15-LOX-2 IC50, experimental values repeated in docking table
[10] = read-out: h15-LOX-2 IC50, full IC50 experiment, 10 μM AA, duplicate
[11] = equilibrium constant of dissociation from the catalytic site, Dixon replot, 0.01% Triton X-100, read-out: Kic

## Cc1ccc(-n2ccnc2SCc2ccc(C(F)(F)F)cc2)cc1 [Compound 101, 1-(p-tolyl)-2-((4-(trifluoromethyl)benzyl)thio)-1H-imidazole]
h15-LOX-2 [1]
  inhibition at 20 µM: 97%
h15-LOX-2 [1]; [7]
  IC50: 0.27 µM

## Fc1ccc(CSc2nccn2-c2ccccc2)cc1 [Compound 102, 2-((4-fluorobenzyl)thio)-1-phenyl-1H-imidazole]
h15-LOX-2 [1]
  inhibition at 20 µM: 35%
h15-LOX-2 [1]; [8]
  IC50: > 100 µM
h15-LOX-2 [1]; [7]
  IC50: > 100 µM

## CSc1ccc(CSc2nccn2-c2ccccc2)cc1 [Compound 103, 2-((4-(methylthio)benzyl)thio)-1-phenyl-1H-imidazole]
h15-LOX-2 [1]
  inhibition at 20 µM: 84%
h15-LOX-2 [1]; [8]
  IC50: 2.3 µM
h15-LOX-2 [1]; [7]
  IC50: 2.3 µM

## N#Cc1cc(CSc2nccn2-c2ccccc2)ccc1F [Compound 104, 2-fluoro-5-(((1-phenyl-1H-imidazol-2-yl)thio)methyl)benzonitrile]
h15-LOX-2 [1]
  potency against h15-LOX-2, SAR statement: drastically decreased the potency
  inhibition at 20 µM: 23%
h15-LOX-2 [1]; [7]
  IC50: > 100 µM

## FC(F)(F)c1ccc(CSc2nccn2-c2ccccc2)cc1 [Compound 105]
h15-LOX-2 [2]
  substrate activity with h15-LOX-2: not substrates
h15-LOX-2 [3]; bi-exponential fits
  average HDX rate constants of peptides 173-184 and 184-191 in presence of inhibitor: 2—and 4-times slower
h15-LOX-2 [3]; short time scales (<10 min), 25° C.
  reduction in exchange of h15-LOX-2 peptides 173-184 and 184-191: ≤ 20%
h15-LOX-1
  IC50: > 50 µM
[4]
  EC50: ~1 µM and 0.75 µM
h15-LOX-2 [5]
  Redox: No
Ovine COX-1
  IC50: > 100 µM
h5-LOX
  IC50: > 100 µM
h15-LOX-2 [1]; ratio of h15-LOX-2 IC50 values
  enhanced inhibition over inhibitor 536924: ~10 fold
h15-LOX-2 [1]
  inhibition at 20 µM: 100%
h15-LOX-2 [1]; [8]
  IC50: 0.34 µM
h15-LOX-2 [1]; [7]
  IC50: 0.34 µM
h15-LOX-2 [1]; [9]
  IC50: 0.34 µM
h15-LOX-2 [1]; [10]
  IC50: 0.34 µM
h15-LOX-2 [6]; Dixon replot of slope versus [Inhibitor], unit given as M, read-out: Kic (FIG. 2 legend)
  Ki: 0.8 µM
h15-LOX-2 [6]; [11]
  Ki: 0.7 µM
Human recombinant COX-2
  IC50: > 100 µM
h12-LOX
  IC50: > 100 µM

## Brc1ccc(CSc2nccn2-c2ccccc2)cc1 [Compound 106]
h15-LOX-1
  IC50: > 50 µM
Ovine COX-1
  IC50: > 100 µM
h5-LOX
  IC50: > 100 µM
Human recombinant COX-2
  IC50: > 100 µM
h12-LOX
  IC50: > 100 µM

## CCc1ccc(CSc2nccn2-c2ccccc2)cc1 [Compound 107]
h15-LOX-2 [2]
  substrate activity with h15-LOX-2: not substrates
h15-LOX-1
  IC50: > 50 µM
[4]
  EC50: ~1 µM and 1.3 µM
h15-LOX-2 [5]
  Redox: No
Ovine COX-1
  IC50: > 100 µM
h5-LOX
  IC50: > 100 µM
h15-LOX-2 [1]
  inhibition at 20 µM: 98%
h15-LOX-2 [1]; [8]
  IC50: 0.87 µM
h15-LOX-2 [1]; [7]
  IC50: 0.87 µM
h15-LOX-2 [1]; [9]
  IC50: 0.87 µM
h15-LOX-2 [1]; [10]
  IC50: 0.87 µM
h15-LOX-2 [6]; [11]
  Ki: 0.9 µM
h15-LOX-2 [6]; equilibrium constant of dissociation from the secondary site, Dixon replot, 0.01% Triton X-100, read-out: Kiu
  Ki: 3.4 µM
Human recombinant COX-2
  IC50: > 100 µM
h12-LOX
  IC50: > 100 µM

## Cc1ccccc1CSc1nccn1-c1ccccc1 [Compound 108]
h15-LOX-2 [1]
  potency against h15-LOX-2, SAR statement: drastically decreased the potency
  inhibition at 20 µM: 31%
h15-LOX-2 [1]; [7]
  IC50: > 50 µM

## Clc1cccc(CSc2nccn2-c2ccccc2)c1 [Compound 109]
h15-LOX-2 [1]
  potency against h15-LOX-2, SAR statement: drastically decreased the potency
  inhibition at 20 µM: 39%
h15-LOX-2 [1]; [7]
  IC50: > 50 µM

## c1ccc(CCSc2nccn2-c2ccccc2)cc1 [Compound 110]
h15-LOX-2 [1]
  potency against h15-LOX-2, SAR statement: drastically decreased the potency
  inhibition at 20 µM: 68%
h15-LOX-2 [1]; [7]
  IC50: > 25 µM

## O=C(CSc1nccn1-c1ccccc1)NO [Compound 111]
h15-LOX-2 [1]
  inhibition at 20 µM: 4%
h15-LOX-2 [1]; [7]
  IC50: > 100 µM

## O=C(O)CCCSc1nccn1-c1ccccc1 [Compound 112]
h15-LOX-2 [1]
  inhibition at 20 µM: 8%
h15-LOX-2 [1]; [7]
  IC50: > 100 µM

## Cc1ccc(C(=O)CSc2nccn2-c2ccccc2)cc1 [Compound 113]
h15-LOX-2 [1]
  inhibition at 20 µM: 56%
h15-LOX-2 [1]; [7]
  IC50: > 25 µM

## O=C(CSc1nccn1-c1ccccc1)c1ccc(Cl)cc1 [Compound 114]
h15-LOX-2 [1]
  inhibition at 20 µM: 62%
h15-LOX-2 [1]; [7]
  IC50: > 25 µM

## O=C(CSc1nccn1-c1ccccc1)c1ccc(Br)cc1 [Compound 115]
h15-LOX-2 [1]
  inhibition at 20 µM: 51%
h15-LOX-2 [1]; [7]
  IC50: > 25 µM

## Cc1cc(C)cc(NC(=O)CSc2nccn2-c2ccccc2)c1 [Compound 116]
h15-LOX-2 [1]
  inhibition at 20 µM: 0%
h15-LOX-2 [1]; [7]
  IC50: > 100 µM

## O=C(CSc1nccn1-c1ccccc1)NCc1ccc(F)cc1 [Compound 117]
h15-LOX-2 [1]
  inhibition at 20 µM: 8%
h15-LOX-2 [1]; [7]
  IC50: > 100 µM

## Cc1ccc(NC(=O)CSc2nccn2-c2ccccc2)cc1 [Compound 118]
h15-LOX-2 [1]
  inhibition at 20 µM: 18%
h15-LOX-2 [1]; [7]
  IC50: > 50 µM

## Cc1ccc(C)c(-n2ccnc2SCC(=O)O)c1 [Compound 119]
h15-LOX-2 [1]
  inhibition at 20 µM: 4%
h15-LOX-2 [1]; [7]
  IC50: > 100 µM

## Cc1cc(C)cc(-n2ccnc2SCC(=O)O)c1 [Compound 120]
h15-LOX-2 [1]
  inhibition at 20 µM: 7%
h15-LOX-2 [1]; [7]
  IC50: > 100 µM

## Cc1cccc(-n2ccnc2SCC(=O)O)c1C [Compound 121]
h15-LOX-2 [1]
  inhibition at 20 µM: 7%
h15-LOX-2 [1]; [7]
  IC50: > 100 µM

## Cc1ccccc1-n1ccnc1SCC(=O)O [Compound 122]
h15-LOX-2 [1]
  inhibition at 20 µM: 8%
h15-LOX-2 [1]; [7]
  IC50: > 100 µM

## CC(C)c1ccc(-n2ccnc2SCC(=O)O)cc1 [Compound 123]
h15-LOX-2 [1]
  inhibition at 20 µM: 13%
h15-LOX-2 [1]; [7]
  IC50: > 100 µM

## Cc1ccc(-n2ccnc2SCC(=O)O)cc1C [Compound 124]
h15-LOX-2 [1]
  inhibition at 20 µM: 14%
h15-LOX-2 [1]; [7]
  IC50: > 100 µM

## Cc1ccc(-n2ccnc2SCC(=O)O)c(C)c1 [Compound 125]
h15-LOX-2 [1]
  inhibition at 20 µM: 16%
h15-LOX-2 [1]; [7]
  IC50: > 50 µM

## Cc1cccc(-n2ccnc2SCC(=O)Nc2ccccc2C(F)(F)F)c1 [Compound 126]
h15-LOX-2 [1]
  inhibition at 20 µM: 4%
h15-LOX-2 [1]; [7]
  IC50: > 100 µM

## Cc1cccc(-n2ccnc2SCC(=O)Nc2cc(C(F)(F)F)ccc2Cl)c1 [Compound 127]
h15-LOX-2 [1]
  inhibition at 20 µM: 13%
h15-LOX-2 [1]; [7]
  IC50: > 100 µM
